Experimental data from US20100256040A1 (priority 2001, published 2010).
Like-named read-outs stand apart in the source and are kept apart here. Where a SMILES comes first, the peptide text is derived from it. Where no end group is shown, it is not given here.

What was measured:
[1] = Cytotoxicity measurement by MTS staining in PBMC cultures; type: cell-based; conditions: human
Protocol: At assay termination the assay plates were stained with the soluble tetrazolium-based dye MTS (CellTiter Reagent, Promega) to determine cell viability and quantify compound toxicity. MTS is metabolized by the mitochondria enzymes of metabolically active cells to yield a soluble formazan product, allowing the rapid quantitative analysis cell viability and compound cytotoxicity. […] At termination of the assay, 20 μl of MTS reagent was added per well. The wells were incubated overnight for the HIV cytoprotection assay at 37° C. The incubation intervals were chosen based on empirically determined times for optimal dye reduction in each cell type. Adhesive plate sealers were used in place of the lids, the sealed plate was inverted several times to mix the soluble formazan product and the plate was read spectrophotometrically at 490 nm with a Molecular Devices Vmax plate reader.

HIV-1 = assay: microbe, parasite or virus in culture
Protocol: Fresh human blood was obtained commercially from Interstate Blood Bank, Inc. (Memphis, Tenn.). The lymphotropic clinical isolate HIV-1ROJO was obtained from a pediatric patient attending the AIDS Clinic at the University of Alabama at Birmingham. The laboratory-adapted HIV-1IIIB strain was propagated and tittered in fresh human PBMCs; pre-titered aliquots of HIV-1ROJO and Hiv-1IIIB were removed from the freezer (−80° C.) and thawed rapidly to room temperature in a biological safety cabinet immediately before use. Phytohemagglutinin (PHA-P) was obtained from Sigma (St. Louis, Mo.) and recombinant IL-2 was obtained from Amgen (San Francisco, Calif.).
Fresh human PBMCs were isolated from screened donors, seronegative for HIV and HBV. Leukophoresed blood was diluted 1:1 with Dulbecco's phosphate buffered saline (PBS), layered over 14 mL of Ficoll-Hypaque density gradient in a 50 mL centrifuge tube and then centrifuged for 30 minutes at 600×g. Banded PBMCs were aspirated from the resulting interface and subsequently washed 2× with PBS by low speed centrifugation. After the final wash, cells were enumerated by trypan blue exclusion and re-suspended at 1×10^7 cells/mL in RPMI 1640 supplemented with 15% Fetal Bovine Serum (FBS), 2 mM L-glutamine, 4 μg/mL PHA-P. The cells were allowed to incubate for 48-72 hours at 37° C. After incubation, PBMCs were centrifuged and reset in RPMI 1640 with 15% FBS, 2 mM L-glutamine, 100 U/ml penicillin, 100 μg/mL streptomycin, 10 μg/mL gentamycin, and 20 U/mL recombinant human IL-2. PBMCs were maintained in this medium at a concentration of 1-2×10^6 cells/mL with biweekly medium changes until used in the assay protocol.
For the standard PBMC assay, PHA-P stimulated cells from at least two normal donors were pooled, diluted in fresh medium to a final concentration of 1×10^6 cells/mL, and plated in the interior wells of 96 well round bottom microplate at 50 μL/well (5×10^4 cells/well). Test drug dilutions were prepared at a 2× concentration in microtiter tubes and 100 μL of each concentration was placed in appropriate wells in a standard format. 50 μl, of a predetermined dilution of virus stock was placed in each test well (final MOI≈0.1). Wells with cells and virus alone were used for virus control. Separate plates were prepared identically without virus for drug cytotoxicity studies using an XTT assay system. The PBMC cultures were maintained for seven days following infection, at which time cell-free supernate samples were collected and assayed for reverse transcriptase activity as described below.
A microtiter based reverse transcriptase (RT) reaction was utilized. See Buckheit et al., AIDS Research and Human Retroviruses 7:295-302 (1991). Tritiated thymidine triphosphate (NEN) (TTP) was resuspended in distilled H2O at 5 Ci/ml. Poly rA and oligo dT were prepared as a stock solution which was kept at −20° C. The RT reaction buffer was prepared fresh on a daily basis and consists of 125 μl 1M EGTA, 125 μl dH2O, 110 μl 10% SDS, 50 μl 1M Tris (pH 7.4), 50 μl 1M DTT, and 40 μl 1M MgCL2. These three solutions were mixed together in a ratio of 2 parts TTP, 1 part poly rA:oligo dT, and 1 part reaction buffer. Ten microliters of this reactions mixture was placed at a round bottom microtiter plate and 15 μl of virus containing supernatant was added and mixed. The plate was incubated at 37° C. in a water bath with a solid support to prevent submersion of the plate and incubated for 60 minutes. Following reaction, the reaction volume was spotted onto pieces of DE81 paper, washed 5 times 5 minutes each in a 5% sodium phosphate buffer, 2 times 1 minute each in distilled water, 2 times for 1 minute each in 70% ethanol, and then dried. Opti-Fluor-O (Packard) was added to each sample and incorporated radioactivity was quantified utilizing a Wallac 1450 MicroBeta Plus liquid scintillation counter.

Tsg101 = biological target: T1, Tsg101 (Homo sapiens, UniProt Q99816); assay: Yeast two-hybrid filter lift assay for β-Gal activity (Tsg101 / p6gag interaction); type: binding; design: key to Interactions Between Tsg101 and p6gag (β-Gal activity): +: Positive β-Gal activity indicates that the p6gag wild type or mutant protein interacts with Tsg101; conditions: for ability to bind Tsg101 protein / Tsg101-p6gag interaction (in words): yeast two-hybrid
T1 construct: expressed in transfected cells
From the text: Yeast two-hybrid assays were utilized to determine the effect of amino acid substitution mutations in the PTAP motif of HIV p6gag on the interaction between Tsg101 and p6gag. To prepare a yeast two-hybrid activation domain-Tsg101 construct, a DNA fragment encompassing the full-length coding sequence for Tsg101 according to GenBank Accession No. U82130 was obtained by PCR from a human fetal brain cDNA library and cloned into the EcoRI/Pst1 sites of the activation domain parent plasmid GADpN2 (LEU2, CEN4, ARS1, ADH1p-SV40NLS-GAL4 (768-881)-MCS (multiple cloning site)-PGK1t, AmpR, ColE1_ori).
To prepare the yeast two-hybrid DNA binding domain-HIV1 p6gag construct, a DNA fragment corresponding to the HIV1 p6 peptide derived from the HIV1.NL43 strain GAG protein was obtained by PCR from the NL43 containing plasmid R9Δapa and was cloned into the EcoRI/Sal1 sites of the binding domain parent plasmid pGBT.Q. The sequence of the amplified insert is shown in SEQ ID NO:3485. In addition, the amino acid sequence of the HIV-1NYU/BR5 GAG is provided in GenBank under Accession No. AF324493 and is listed in SEQ ID NO:3484.
The following amino acid substitution mutations were introduced by PCR into the HIV1 p6gag sequence in the yeast two-hybrid binding domain-HIV1 p6gag construct described above. The mutations were verified by DNA sequence analysis.
To test the effect of the mutations, yeast cells of the strain Y189 purchased from Clontech (ura3-52 his3*200 ade2-101 trp1-901 leu2-3,112 met gal4 gal80 URA3::GAL1p-lacZ) were co-transformed with the activation domain-Tsg101 construct and one of the binding domain-mutant p6gag constructs or the binding domain-wild type p6gag construct. Filter lift assays for β-Gal activity were conducted by lifting the transformed yeast colonies with filters, lysing the yeast cells by freezing and thawing, and contacting the lysed cells with X-Gal. […] All binding domain constructs were also tested for self-activation of β-Gal activity.

Full length Tsg101 = biological target: T2, Full length Tsg101 (Homo sapiens, UniProt Q99816); assay: Yeast two-hybrid liquid culture β-galactosidase assay; type: binding; conditions: p6 point mutants
T2 construct: expressed in transfected cells
T2 sequence (Q99816 1-390): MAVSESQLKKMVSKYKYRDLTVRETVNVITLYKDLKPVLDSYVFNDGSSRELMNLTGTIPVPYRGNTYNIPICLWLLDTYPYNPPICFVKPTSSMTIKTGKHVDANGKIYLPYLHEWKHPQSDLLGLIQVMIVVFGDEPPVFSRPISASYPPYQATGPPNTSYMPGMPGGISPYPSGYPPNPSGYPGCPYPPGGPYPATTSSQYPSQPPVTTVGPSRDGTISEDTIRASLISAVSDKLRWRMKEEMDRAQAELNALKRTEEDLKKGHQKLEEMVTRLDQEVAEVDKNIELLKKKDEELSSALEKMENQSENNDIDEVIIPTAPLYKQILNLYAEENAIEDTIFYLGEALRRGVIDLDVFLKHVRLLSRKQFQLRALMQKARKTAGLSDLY
Protocol: The interactions between TSG101 and wild-type p6gag (WT) or the p6gag PTAP mutants were further quantitated by performing liquid culture β-galactosidase assays. Cultures were grown overnight in synthetic media (-Leu, -Trp, +glucose) in 96 well plates, normalized for optical density, and lysed by addition of 6× lysis/substrate solution in 6×Z-buffer (60 mM KCl, 6 mM MgSO4, 360 mM Na2HPO4, 240 mM NaH2PO4, 6 mg/ml CPRG, 0.12 U/ml lyticase, 0.075% NP-40). Cultures were incubated for 2 hr at 37° C., clarified by centrifugation, and the optical absorbance of each supernatant was measured (575 nm). Full length Tsg101 bound wild-type p6 in the two-hybrid liquid culture assay, resulting in high levels of β-galactosidase activity (>300-fold over background). […] Each of these point mutations also arrests HIV-1 budding at a late stage (Huang et al. 1995).

[2] = PBMC plates without virus, tetrazolium dye staining, read-out: TC50
[3] = fresh human PBMCs, seven days following infection, RT activity

Row | Compound | CC50 at 7 days [1, 2] [µM] | Comments (anti-HIV activity) (HIV-1; fresh human PBMCs) | IC50 (HIV-1; [3]) [µM] | ability to bind Tsg101 protein / Tsg101-p6gag interaction (in words) (Tsg101) | β-galactosidase activity (in words) (Full length Tsg101) | other results
1 | C[C@H](NC(=O)[C@@H](NC(=O)[C@@H]1CCCN1C(=O)[C@H](CCC(=O)O)NC(=O)[C@@H]1CCCN1C(=O)[C@@H](N)CCCNC(=N)N)[C@@H](C)O)C(=O)N1CCC[C@H]1C(N)=O [MPI-PEP3, NH2-RPEPTAP-CO-NH2] (H-RPEPTAP-NH2) | > 200 | Inactive | > 200 | – | – | –
2 | p6(P10L) (LQSRPEPTALPEESFRFGEETTTPSQKQEPIDKELYPLASLRSLFGSDPSSQ; not fully specified) | – | – | – | abolishes the p6 binding affinity | reduced β-galactosidase activity to background levels | –
3 | C[C@H](NC(=O)[C@@H](NC(=O)[C@@H]1CCCN1C(=O)[C@H](CCC(=O)O)NC(=O)[C@@H]1CCCN1C(=O)[C@H](CCCNC(=N)N)NC(=O)[C@H](CCCNC(=N)N)NC(=O)[C@H](CCCNC(=N)N)NC(=O)[C@H](CCCNC(=N)N)NC(=O)[C@H](CCCNC(=N)N)NC(=O)[C@H](CCCNC(=N)N)NC(=O)[C@H](CCCNC(=N)N)NC(=O)[C@H](CCCNC(=N)N)NC(=O)[C@@H](N)CCCNC(=N)N)[C@@H](C)O)C(=O)N1CCC[C@H]1C(=O)N[C@@H](CCC(=O)O)C(=O)N[C@@H](CCC(=O)O)C(=O)O [MPI-PEP1, NH2-(R)9-PEPTAPEE-COOH] (H-RRRRRRRRRPEPTAPEE-OH) | > 200 | Active | 21.7 | – | – | –
4 | CC(C)C[C@H](NC(=O)[C@H](C)NC(=O)[C@@H](NC(=O)[C@@H]1CCCN1C(=O)[C@H](CCC(=O)O)NC(=O)[C@@H]1CCCN1C(=O)[C@H](CCCNC(=N)N)NC(=O)[C@H](CCCNC(=N)N)NC(=O)[C@H](CCCNC(=N)N)NC(=O)[C@H](CCCNC(=N)N)NC(=O)[C@H](CCCNC(=N)N)NC(=O)[C@H](CCCNC(=N)N)NC(=O)[C@H](CCCNC(=N)N)NC(=O)[C@H](CCCNC(=N)N)NC(=O)[C@@H](N)CCCNC(=N)N)[C@@H](C)O)C(=O)N[C@@H](CCC(=O)O)C(=O)N[C@@H](CCC(=O)O)C(=O)O [MPI-PEP2, NH2-(R)9-PEPTALEE-COOH] (H-RRRRRRRRRPEPTALEE-OH) | > 200 | Inactive | > 200 | – | – | –
5 | p6(E6G) (LQSRPGPTAPPEESFRFGEETTTPSQKQEPIDKELYPLASLRSLFGSDPSSQ; not fully specified) | – | – | – | did not result in the elimination of the Tsg101-p6gag interaction | – | Interactions Between Tsg101 and p6gag (β-Gal activity) (Tsg101; yeast Y189 co-transformed with activation domain-Tsg101 and binding domain-p6gag construct, filter lift, X-Gal): +; ability to bind Tsg101 protein / Tsg101-p6gag interaction (in words) (Tsg101; listed as E6G): capable of binding
6 | p6(P7L) (LQSRPELTAPPEESFRFGEETTTPSQKQEPIDKELYPLASLRSLFGSDPSSQ; not fully specified) | – | – | – | abolishes the p6 binding affinity | reduced β-galactosidase activity to background levels | –
7 | Cc1cn([C@H]2C[C@H](N=[N+]=[N-])[C@@H](CO)O2)c(=O)[nH]c1=O [AZT, 3′-Azido-3′-deoxythymidine, reference compound] | – | Control; Highly | – | – | – | CC50 at 7 days [1]: > 1 µM; IC50 (HIV-1; Human immunodeficiency virus 1, PBMC, 168 h): 0.008 µM
8 | p6(A9R) (LQSRPEPTRPPEESFRFGEETTTPSQKQEPIDKELYPLASLRSLFGSDPSSQ; not fully specified) | – | – | – | abolishes the p6 binding affinity | reduced β-galactosidase activity to background levels | –
